Values belong to the compound of their own block, whether it stands above or below them.
Assays:
NCI-H1581 = assay: cells; settings: Homo sapiens, NCI-H1581, 72 h
Description: Antiproliferative activity against FGFR1 amplified human NCI-H1581 cells after 72 hrs by CCK8 or MTT assay

BaF3 [1] = assay: cells; settings: Mus musculus, BaF3, 72 h
Description: Antiproliferative activity against mouse BAF3 cells expressing TEL-fused KDR kinase after 72 hrs by CCK8 or MTT assay

OPM-2 = assay: cells; settings: Homo sapiens, OPM-2, 72 h
Description: Antiproliferative activity against FGFR3 amplified human OPM2 cells after 72 hrs by CCK8 or MTT assay

RT-112 = assay: cells; settings: Homo sapiens, RT-112, 72 h
Description: Antiproliferative activity against FGFR3 amplified human RT112 cells after 72 hrs by CCK8 or MTT assay

Huh-7 = assay: cells; settings: Homo sapiens, Huh-7, 72 h
Description: Antiproliferative activity against FGF19/FGFR4 expressing human HuH7 cells after 72 hrs by CCK8 or MTT assay

BaF3 [2] = assay: cells; settings: Mus musculus, BaF3, 72 h; remark: listed apart in the source
Description: Antiproliferative activity against mouse BAF3 cells expressing TEL-fused FGFR4 kinase after 72 hrs by CCK8 or MTT assay

[3] = target: Fibroblast growth factor receptor 1 (Homo sapiens, UniProt P11362)
Description: Inhibition of recombinant FGFR1 (unknown origin) using poly (Glu,Tyr) 4:1 as substrate after 60 mins by ELISA

[4] = target: Fibroblast growth factor receptor 4 (Homo sapiens, UniProt P22455); assay: Inhibition of recombinant FGFR4 (unknown origin) using poly (Glu,Tyr) 4:1 as substrate after 60 mins by ELISA
[5] = Terminal half life in Sprague-Dawley rat at 10 mg/kg, po administered via gavage by HPLC-MS/MS analysis; type: ADME, organism-based; settings: in vivo, read-out: beta t1/2 (converted)
[6] = Tmax in Sprague-Dawley rat at 10 mg/kg, po administered via gavage by HPLC-MS/MS analysis; type: ADME, organism-based; settings: in vivo
[7] = AUC in Sprague-Dawley rat at 10 mg/kg, po administered via gavage by HPLC-MS/MS analysis; type: ADME, organism-based; settings: in vivo
[8] = Cmax in Sprague-Dawley rat at 10 mg/kg, po administered via gavage by HPLC-MS/MS analysis; type: ADME, organism-based; design: dose 10 mg/kg, route oral; settings: in vivo

Fibroblast growth factor receptor 1, sequence (P11362 whole entry): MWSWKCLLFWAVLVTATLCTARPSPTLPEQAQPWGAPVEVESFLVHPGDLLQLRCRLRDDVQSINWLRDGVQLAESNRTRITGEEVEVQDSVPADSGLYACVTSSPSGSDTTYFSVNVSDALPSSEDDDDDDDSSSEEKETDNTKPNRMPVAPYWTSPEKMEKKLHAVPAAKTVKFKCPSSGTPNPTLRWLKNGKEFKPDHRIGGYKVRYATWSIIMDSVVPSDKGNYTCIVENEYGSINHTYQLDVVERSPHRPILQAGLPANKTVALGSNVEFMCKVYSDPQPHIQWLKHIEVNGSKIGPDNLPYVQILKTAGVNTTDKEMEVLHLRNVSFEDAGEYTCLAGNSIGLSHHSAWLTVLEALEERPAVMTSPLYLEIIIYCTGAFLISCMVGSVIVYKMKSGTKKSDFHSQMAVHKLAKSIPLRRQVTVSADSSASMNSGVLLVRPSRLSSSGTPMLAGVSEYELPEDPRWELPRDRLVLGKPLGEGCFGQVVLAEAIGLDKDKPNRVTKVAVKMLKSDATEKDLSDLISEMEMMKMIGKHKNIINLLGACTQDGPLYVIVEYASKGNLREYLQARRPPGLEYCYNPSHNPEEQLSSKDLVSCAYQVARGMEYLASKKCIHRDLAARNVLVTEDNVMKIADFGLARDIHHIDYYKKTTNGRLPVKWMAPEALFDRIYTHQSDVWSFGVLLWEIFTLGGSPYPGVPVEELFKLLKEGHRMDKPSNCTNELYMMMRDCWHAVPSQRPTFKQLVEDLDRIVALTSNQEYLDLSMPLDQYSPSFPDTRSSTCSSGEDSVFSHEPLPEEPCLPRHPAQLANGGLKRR
Fibroblast growth factor receptor 4, sequence (P22455 whole entry): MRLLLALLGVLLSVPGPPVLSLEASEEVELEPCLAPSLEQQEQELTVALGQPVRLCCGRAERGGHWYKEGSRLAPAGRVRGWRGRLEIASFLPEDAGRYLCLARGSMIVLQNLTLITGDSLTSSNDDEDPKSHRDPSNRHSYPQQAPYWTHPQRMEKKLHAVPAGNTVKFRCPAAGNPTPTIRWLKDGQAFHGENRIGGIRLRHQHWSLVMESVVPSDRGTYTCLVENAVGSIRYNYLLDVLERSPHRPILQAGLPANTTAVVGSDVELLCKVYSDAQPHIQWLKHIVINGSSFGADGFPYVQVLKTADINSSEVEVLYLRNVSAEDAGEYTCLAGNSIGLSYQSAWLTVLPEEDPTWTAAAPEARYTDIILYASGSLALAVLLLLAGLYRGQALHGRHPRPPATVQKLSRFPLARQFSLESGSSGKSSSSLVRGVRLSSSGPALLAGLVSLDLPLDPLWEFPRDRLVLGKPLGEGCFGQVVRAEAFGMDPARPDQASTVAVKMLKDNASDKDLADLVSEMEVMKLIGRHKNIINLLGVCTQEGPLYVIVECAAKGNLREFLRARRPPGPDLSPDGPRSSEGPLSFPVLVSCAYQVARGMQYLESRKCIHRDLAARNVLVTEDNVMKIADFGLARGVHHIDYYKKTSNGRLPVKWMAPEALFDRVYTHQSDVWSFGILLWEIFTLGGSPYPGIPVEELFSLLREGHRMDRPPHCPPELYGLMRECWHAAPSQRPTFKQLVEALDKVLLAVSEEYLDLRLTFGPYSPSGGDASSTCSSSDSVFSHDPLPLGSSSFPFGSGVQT

IC50 (NCI-H1581): 0.17 µM
SMILES: C=CC(=O)N1CC(n2cc(-c3cc4ccccc4s3)c3c(N)ncnc32)C1

IC50 (NCI-H1581): < 0.0003 µM
SMILES: C=CC(=O)N1CCC(n2cc(-c3cc4cc(OC)cc(OC)c4s3)c3c(N)ncnc32)C1 (stereo not drawn)

IC50 (BaF3 [1]): 0.543 µM
IC50 (OPM-2): 0.0836 µM
IC50 (RT-112): 0.0364 µM
IC50 (Huh-7): 0.284 µM
IC50 (BaF3 [2]): 0.339 µM
SMILES: COc1cc(CCc2cc(NC(=O)c3ccc(N4C[C@@H](C)N[C@@H](C)C4)cc3)n[nH]2)cc(OC)c1 [FEXAGRATINIB]

IC50 (NCI-H1581): 0.0679 µM
SMILES: C=CC(=O)NC1CCC(n2cc(-c3cc4cc(C)cc(OC)c4s3)c3c(N)ncnc32)CC1 (stereo not drawn)

IC50 (NCI-H1581): < 0.0003 µM
SMILES: COc1cc(C)cc2cc(-c3cn(C4CCN(C(=O)/C=C/CN(C)C)C4)c4ncnc(N)c34)sc12 (stereo not drawn)

IC50 (NCI-H1581): 0.0861 µM
SMILES: C=CC(=O)N1CC(n2cc(-c3cc4ccc(OC)cc4s3)c3c(N)ncnc32)C1

IC50 (BaF3 [1]): 3.34 µM
IC50 (RT-112): < 0.0005 µM
IC50 (Huh-7): 0.0572 µM
IC50 (BaF3 [2]): 0.133 µM
SMILES: CCN1CCN(c2ccc(Nc3cc(N(C)C(=O)Nc4c(Cl)c(OC)cc(OC)c4Cl)ncn3)cc2)CC1 [INFIGRATINIB]

IC50 (NCI-H1581): 0.255 µM
SMILES: C=CC(=O)NCCn1cc(-c2cc3cc(C)cc(OC)c3s2)c2c(N)ncnc21

IC50 (NCI-H1581): 0.227 µM
SMILES: C=CC(=O)N1CCCC(n2cc(-c3cc4cc(C)cc(OC)c4s3)c3c(N)ncnc32)C1 (stereo not drawn)

IC50 (NCI-H1581): 0.0217 µM
IC50 [3]: 0.0006 µM
IC50 [4]: 0.0827 µM
SMILES: C=CC(=O)N1CC[C@@H](n2cc(-c3cc4cc(C)cc(OC)c4s3)c3c(N)ncnc32)C1

IC50 (NCI-H1581): < 0.0003 µM
half-life [5]: 2.11 h
Tmax [6]: 1.67 h
AUC [7]: 46.4 ng·h/mL
Cmax [8]: 12 ng/mL
SMILES: C=CC(=O)N1CC(n2cc(-c3cc4cc(C)cc(OC)c4s3)c3c(N)ncnc32)C1

IC50 (NCI-H1581): < 0.0003 µM
SMILES: C=CC(=O)N1CCC(n2cc(-c3cc4cccc(C)c4s3)c3c(N)ncnc32)C1 (stereo not drawn)

IC50 (NCI-H1581): 0.0497 µM
SMILES: CCC(=O)N1CCC(n2cc(-c3cc4cc(C)cc(OC)c4s3)c3c(N)ncnc32)C1 (stereo not drawn)

IC50 (NCI-H1581): < 0.0003 µM
SMILES: C=CC(=O)N1CCC(n2cc(-c3cc4cc(C)cc(OC)c4s3)c3c(N)ncnc32)CC1

IC50 (NCI-H1581): 0.0381 µM
SMILES: C=CC(=O)N1CC(n2cc(-c3cc4cc(OC)ccc4s3)c3c(N)ncnc32)C1

Source: ChEMBL document CHEMBL4382193, “Discovery of Potent Irreversible Pan-Fibroblast Growth Factor Receptor (FGFR) Inhibitors” (J Med Chem, 2018)
